Where two headings read alike, the source gives them in different places.
Experiments:
[1] = Pharmacokinetic study of DX117 (LC/MS in plasma); format: in vivo; conditions: rat, 50 mg/kg, administered compound assayed
Text: (§1) The following study is a determination by LC/MS in plasma of the various molecules over 3 days (11 measurement points at the end). The graphs are always presented in comparison with DX101, which is the reference. […]

[2] = tested on: MCF-7 mammary tumor cells; assay: cells; format: cell-based; conditions: Homo sapiens, MCF7, 48 h, read-out: cellular viability relative to the control group
Protocol: A cell viability test was carried out on MCF-7 mammary tumor cells (Michigan Cancer Foundation-7) […] (ER(+) cells) containing receptors for the hormone estrogen.
The MCF-7 cells are in a cell culture medium identical to example 14 and are seeded in 12-well plates at 50000 cells per well for 24 h. 24 hours after seeding, the cells are treated with the solvate vehicle comprising water and ethanol with an ethanol ratio 1‰ and comprising 5α-hydroxy-6β-[2-(1H-imidazol-4-yl)-ethylamino]-cholestan-3β-yl propionate or 5α-hydroxy-6β-[2-(1H-imidazol-4-yl)-ethylamino]-cholestan-3β-ol at 1, 2.5 or 5 μM. The cells are observed in an inverted microscope and photographed with the microscope camera at 24 h and 48 h. The morphological changes of the cells at 1 μM are very slight.
Following these observations, a cell viability test is measured by MTT labeling at 48 hours. This test is based on the use of the tetrazolium salt MTT (3-(4,5-dimethylthiazol-2-yl)-2,5-diphenyltetrazolium bromide). Tetrazolium is reduced by mitochondrial succinate dehydrogenase of active living cells, in formazan, precipitate of violet color. The amount of precipitate formed is proportional to the quantity of living cells but also to the metabolic activity of each cell. […] After 48 hours, the medium is aspirated, the cells are washed with phosphate-buffered saline (PBS) and then incubated with MTT (0.5 mg/ml in PBS) for about 2 hours. The MTT solution is aspirated and then the violet crystals are dissolved in dimethylsulfoxide (DMSO). The OD (optical density) is measured at 540 nm.
The control group is carried out similarly to the study groups without adding the molecules studied in the present text. Compared to the control, a decrease is measured, dependent on the dose of […], in cellular viability in MTT for 5α-hydroxy-6β-[2-(1H-imidazol-4-yl)-ethylamino]-cholestan-3β-yl propionate and 5α-hydroxy-6β-[2-(1H-imidazol-4-yl)-ethylamino]-cholestan-3β-ol.

[3] = Pharmacokinetic study of DX121 (LC/MS in plasma); format: in vivo; conditions: rat, oral 50 mg/kg, administered compound assayed
Text: as §1

4T1 cells = assay: Cytotoxicity on 4T1 cells, MTT; format: cell-based, murine; conditions: Mus musculus, 4T1, MTT, 48 h
Protocol: The cellular viability tests were carried out on murine mammary tumor 4T1 cells characterized as negative triples (HER2−, ER−, PR−).
For this experiment, a cell culture medium was prepared. The culture medium consists of Dulbecco's Modified Eagle Medium (DMEM, marketed by Westburg under the reference LO BE12-604F), comprising 4.5 g/L glucose with L-glutamine, to which 10% of fetal calf serum (FCS) and 50 U/mL of penicillin/streptomycin are added. The 4T1 cells are introduced into this culture medium.
96-well plates were seeded with 2000 4T1 cells per well. After 72 hours (h) of culture in normal conditions, i.e. in an incubator at a temperature of 37° C. at 5% CO2, the 4T1 cells are treated for 48 h with DX101, DX107, DX113, DX117, DX119, DX121 or DX131 at 100 nM, 1 μM, 2.5 μM and 10 μM. A control condition (CTL) is also carried out in parallel using the protocol described above but without treatment with the molecules DX101, DX107, DX113, DX117, DX119, DX121, DX131 or DX133.
Cellular viability is measured by three different methods. For the first method, MTT labeling is carried out at 48 hours. This test is based on the use of the tetrazolium salt MTT (3-(4,5-dimethylthiazol-2-yl)-2,5-diphenyltetrazolium bromide). The tetrazolium is reduced by mitochondrial succinate dehydrogenase of active living cells, to formazan, a precipitate of a violet color. The quantity of precipitate formed is proportional to the quantity of living cells but also to the metabolic activity of each cell. […] After 48 hours, the medium is aspirated, and the cells are incubated with MTT (0.5 mg/ml in culture medium) for about 3 hours. The MTT solution is aspirated and the violet crystals are dissolved in dimethylsulfoxide (DMSO). The OD (optical density) is measured at 550 nm. The percentage viability is then determined in each well relative to the CTL and the IC50 (concentration for which there are still 50% of living cells) is determined for each molecule with Prism software using the nonlinear regression straight line (log(inhibitor) vs. Response).

[4] = tested on: BT-474 human mammary tumor cells; assay: Cytotoxicity on BT-474 cells, trypan blue; format: cell-based; conditions: BT-474, trypan blue, 48 h
Protocol: The cellular viability tests were also carried out on BT-474 human mammary tumor cells (characterized as being positive triples HER2+, ER+, PR+). The BT-474 cells are in a cell culture medium identical to the preceding example and are seeded in 24-well plates at 70 000 cells per well, for determination of cellular viability using trypan blue, or in 96-well plates at 13 000 cells per well for determination of cellular viability using the MTT or LDH assay. After 96 hours (h) of culture in normal conditions, i.e. in an incubator at a temperature of 37° C. at 5% CO2, the BT-474 cells are treated for 48 h with DX101, DX107, and DX113 at 100 nM, 1 μM, 2.5 μM and 10 μM. A control is also carried out using the protocol described above but without treatment with the molecules DX101, DX107, DX113, DX117, DX119, DX121 or DX131.
After trypsin digestion for 10 minutes at 37° C., cell survival was quantified, also by a trypan blue assay with automatic counting with the Biorad TC20 equipment (TC20™ Automated Cell Counter). The trypan blue assay is based on the cell membrane integrity, which is broken in the dead cells. Trypan blue stains the dead cells blue. The Biorad TC20 cell counter counts the proportion of blue cells and non-blue cells, relative to the cell percentages. The percentage viability is then determined in each well relative to the untreated cells and the IC50 is determined as explained in the preceding example. The percentage viability of the BT-474 cells was determined using the MTT and LDH assay, carried out as described in the preceding example.

Row | Compound | Concentration max [1] [nM] | Area under curve ([1]; 0-72 h) | viability at 2.5 µM [2] [%] | viability at 5 µM [2] [%] | Concentration max [3] [nM] | Area under curve ([3]; 0-72 h) | IC50 (4T1 cells; log of IC50 in μM, read-out: Mean LogIC50 (±SEM) (converted)) [µM] | IC50 (4T1 cells; read-out: IC50) [µM] | Mean LogIC50 (±SEM) ([4]; log of IC50 in μM) | IC50 ([4]; Homo sapiens) [µM]
1 | CC(C)CCC[C@@H](C)[C@H]1CC[C@H]2[C@@H]3C[C@@H](NCCc4c[nH]cn4)[C@@]4(O)C[C@@H](O)CC[C@]4(C)[C@H]3CC[C@]12C [DX101, 5α-hydroxy-6β-[2-(1H-imidazol-4-yl)-ethylamino]-cholestan-3β-ol, reference compound] | 150 | 3019 | ~60 | ~18 | 150 | 3019 | – | – | – | –
2 | CCC(=O)O[C@H]1CC[C@]2(C)[C@H]3CC[C@]4(C)[C@@H]([C@H](C)CCCC(C)C)CC[C@H]4[C@@H]3C[C@@H](NCCc3c[nH]cn3)[C@@]2(O)C1 [DX107, 5α-hydroxy-6β-[2-(1H-imidazol-4-yl)ethylamino]cholestan-3β-yl propionate] | – | – | ~95 | ~18 | – | – | 3.8 | 3.79 | 0.66 ± 0.04 | 4.58

— US20240002429A1, “PRODRUG OF 5a-HYDROXY-6ß-[2-(1H-IMIDAZOL-4-YL)ETHYLAMINO]CHOLESTAN-3ß-OL AND PHARMACEUTICAL COMPOSITIONS COMPRISING SAME FOR USE IN THE TREATMENT OF CANCER” (priority 2020, published 2024)
